Source: patent US7902373B2 (Pfizer Inc, priority 2006, dated 2011)

The compounds below were run against human recombinant H-PGDS (Homo sapiens, UniProt O60760) (assay: Fluorescence intensity h-PGDS TBA enzyme assay). Settings: Examples up to 622 (and 3a, 3b).
Type: biochemical

Chain of human recombinant H-PGDS (O60760 whole entry): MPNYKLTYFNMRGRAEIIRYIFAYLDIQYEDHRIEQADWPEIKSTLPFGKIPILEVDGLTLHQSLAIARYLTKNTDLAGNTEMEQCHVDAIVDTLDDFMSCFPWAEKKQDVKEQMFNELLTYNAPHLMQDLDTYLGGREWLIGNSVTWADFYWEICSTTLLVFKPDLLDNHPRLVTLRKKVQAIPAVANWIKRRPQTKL

Compound | IC50 [nM]
O=C(NC1CCN(c2ccc(C(=O)N3CCSC3)cn2)CC1)c1ccc(-c2cccc(F)c2)nc1 [Example 573, 6-(3-Fluorophenyl)-N-{1-[5-(1,3-thiazolidin-3-ylcarbonyl)pyridin-2-yl]piperidin-4-yl}nicotinamide] | 1.35
CN(CC1CC1)C(=O)c1ccc(N2CCC(NC(=O)c3ccc(-c4cccc(F)c4)nc3)CC2)nc1 [Example 574, N-(Cyclopropylmethyl)-6-[4-({[6-(3-fluorophenyl)pyridin-3-yl]carbonyl}amino)piperidin-1-yl]-N-methylnicotinamide] | 1.24
CC(C)CN(C)C(=O)c1ccc(N2CCC(NC(=O)c3ccc(-c4cccc(F)c4)nc3)CC2)nc1 [Example 575, 6-[4-({[6-(3-Fluorophenyl)pyridin-3-yl]carbonyl}amino)piperidin-1-yl]-N-isobutyl-N-methylnicotinamide] | 2.24
CN(CCC#N)C(=O)c1ccc(N2CCC(NC(=O)c3ccc(-c4cccc(F)c4)nc3)CC2)nc1 [Example 576, N-(2-Cyanoethyl)-6-[4-({[6-(3-fluorophenyl)pyridin-3-yl]carbonyl}amino)piperidin-1-yl]-N-methylnicotinamide] | 0.561
O=C(NC1CCN(CC(F)(F)F)CC1)c1ccc(N2CCC(NC(=O)c3ccc(-c4cccc(F)c4)nc3)CC2)nc1 [Example 577, 6-(3-Fluorophenyl)-N-{1-[5-({[1-(2,2,2-trifluoroethyl)piperidin-4-yl]amino}carbonyl)pyridin-2-yl]piperidin-4-yl}nicotinamide] | 1.48
CC1C=CC(C)N1C(=O)c1ccc(N2CCC(NC(=O)c3ccc(-c4cccc(F)c4)nc3)CC2)nc1 (centres unmarked) [Example 578, N-(1-{5-[(2,5-Dimethyl-2,5-dihydro-1H-pyrrol-1-yl)carbonyl]pyridin-2-yl}piperidin-4-yl)-6-(3-fluorophenyl)nicotinamide] | 3.1
O=C(NC1CCN(c2ncc3c(n2)CCOC3)CC1)c1ccc(-c2cccc(F)c2)nc1 [Example 579, N-[1-(7,8-Dihydro-5H-pyrano[4,3-d]pyrimidin-2-yl)piperidin-4-yl]-6-(3-fluorophenyl)nicotinamide] | 1.05
O=C(NC1CCN(c2cccnn2)CC1)c1ccc(-c2cccc(F)c2)nc1 [Example 580, 6-(3-Fluorophenyl)-N-(1-pyridazin-3-ylpiperidin-4-yl)nicotinamide] | 0.35
O=C(NC1CCN(CC(F)(F)F)CC1)c1ccc(-c2cc(F)ccc2F)nc1 [Example 583, 6-(2,5-Difluorophenyl)-N-[1-(2,2,2-trifluoroethyl)piperidin-4-yl]nicotinamide] | 1.05
CCOC(=O)N1CCC(NC(=O)c2ccc(-c3cc(F)ccc3F)nc2)CC1 [Example 584, Ethyl 4-({[6-(2,5-Difluorophenyl)pyridine-3-yl]carbonyl}amino)piperidine-1-carboxylate] | 1.38
O=C(NC1CCN(CC(F)(F)F)CC1)c1ccc(-c2ccccc2F)nc1 [Example 585, 6-(2-Fluorophenyl)-N-[1-(2,2,2-trifluoroethyl)piperidin-4-yl]nicotinamide] | 0.734
CCOC(=O)N1CCC(NC(=O)c2ccc(-c3ccccc3F)nc2)CC1 [Example 586, Ethyl 4-({[6-(2-fluorophenyl)pyridin-3-yl]carbonyl}amino)piperidine-1-carboxylate] | 0.787
O=C(NC1CCN(Cc2ccccn2)CC1)c1ccc(-c2ccccc2F)nc1 [Example 587, 6-(2-Fluorophenyl)-N-[1-(pyridin-2-ylmethyl)piperidin-4-yl]nicotinamide] | 1.19
N-(1-{[4-(3,4)-1,3-Thiazol-2-yl]methyl}piperidin-4-yl)- 6-(3-fluorophenyl)nicotinamide [Example 413] | 1000
N-[1-(2-Chloro-2-fluoro-5-methoxybenzyl)piperidin-4- yl]-6-(3-fluorophenyl)nicotinamide [Example 468] | 0.375
N-{1-[1-(2-Ethoxyphenyl)-1H-tetrazol-5- yl]piperidin-4-yl}-6-(3-fluorophenyl)nicotinamide [Example 105] | 0.655

Continued, values first:

IC50 [nM] | Compound
0.621 | O=C(NC1CCN(Cc2cccc(F)c2)CC1)c1ccc(-c2ccccc2F)nc1 [Example 588, N-[1-(3-Fluorobenzyl)piperidin-4-yl]-6-(2-fluorophenyl)nicotinamide]
33.3 | CC(C)N1CCC(NC(=O)c2ccc(-c3cccc(F)c3)nc2)C1 (centres unmarked) [Example 589, 6-(3-Fluorophenyl)-N-(1-isopropylpyrrolidin-3-yl)nicotinamide]
0.74 | O=C(NC1CCN(c2ncc3c(n2)CCOC3)C1)c1ccc(-c2cccc(F)c2)nc1 (centres unmarked) [Example 590, N-[1-(7,8-Dihydro-5H-pyrano[43-d]pyrimidin-2-yl)pyrrolidin-3-yl]-6-(3-fluorophenyl)nicotinamide]
5.57 | CCCN1CCC(NC(=O)c2ccc(-c3cccc(F)c3)nc2)CC1 [Example 591, 6-(3-Fluorophenyl)-N-(1-propylpiperidin-4-yl)nicotinamide]
2.44 | CNC(=O)N1CCC(NC(=O)c2ccc(-c3cccc(F)c3)nc2)CC1 [Example 592, 6-(3-Fluorophenyl)-N-{1-[(methylamino)carbonyl]piperidin-4-yl}nicotinamide]
2 | O=C(NC1CCN(CC2CCOCC2)CC1)c1ccc(-c2cccc(F)c2)nc1 [Example 593, 6-(3-Fluorophenyl)-N-[1-(tetrahydro-2H-pyran-4-ylmethyl)piperidin-4-yl]nicotinamide]
2.7 | CCOC(=O)N1CCC(NC(=O)c2ccc(-c3cccc(F)c3)nc2)C1 (centres unmarked) [Example 594, Ethyl 3-({[6-(3-fluorophenyl)pyridin-3-yl]carbonyl}amino)pyrrolidine-1-carboxylate]
1.06 | O=C(NC1CCN(c2ncc3c(n2)CCC3)C1)c1ccc(-c2cccc(F)c2)nc1 (centres unmarked) [Example 595, N-[1-(6,7-Dihydro-5H-cyclopenta[d]pyrimidin-2-yl)pyrrolidin-3-yl]-6-(3-fluorophenyl)nicotinamide]
1.93 | O=C(NC1CCN(CC2CC2)CC1)c1ccc(-c2cccc(F)c2)nc1 [Example 596, N-[1-(Cyclopropylmethyl)piperidin-4-yl]-6-(3-fluorophenyl)nicotinamide]
0.85 | CN1CCc2nc(N3CCC(NC(=O)c4ccc(-c5cccc(F)c5)nc4)C3)ncc2C1 (centres unmarked) [Example 597, 6-(3-Fluorophenyl)-N-[1-(6-methyl-5,6,7,8-tetrahydropyrido[4.3-d]pyrimidin-2-yl)pyrrolidin-3-yl]nicotinamide]
3.79 | CC(C)(C)OC(=O)N1CCC(NC(=O)c2ccc(-c3cccc(F)c3)nc2)CC1 [Example 598, tert-Butyl 4-({[6-(3-fluorophenyl)pyridin-3-yl]carbonyl}amino)piperidine-1-carboxylate]
2.92 | CC(C)(C)OC(=O)N1CC(NC(=O)c2ccc(-c3cccc(F)c3)nc2)C1 [Example 599]
6.76 | CC(C)(C)C(=O)N1CC(NC(=O)c2ccc(-c3cccc(F)c3)nc2)C1 [Example 601, N-[1-(2,2-Dimethylpropanoyl)azetidin-3-yl]-6-(3-fluorophenyl)nicotinamide]
2.98 | Cc1cc(C)c(C#N)c(N2CC(NC(=O)c3ccc(-c4cccc(F)c4)nc3)C2)n1 [Example 602]
2.29 | CCc1cn2nc(N3CC(NC(=O)c4ccc(-c5cccc(F)c5)nc4)C3)ccc2n1 [Example 603, N-[1-(2-Ethylimidazo[1,2-b]pyridazin-6-yl)azetidin-3-yl]-6-(3-fluorophenyl)nicotinamide]
11.5 | O=C(NC1CN(c2ncccc2C(F)(F)F)C1)c1ccc(-c2cccc(F)c2)nc1 [Example 604, 6-(3-Fluorophenyl)-N-{1-[3-(trifluoromethyl)pyridin-2-yl]azetidin-3-yl}nicotinamide]
2.9 | O=C(NC1CN(c2cnc3ccccc3n2)C1)c1ccc(-c2cccc(F)c2)nc1 [Example 605, 6-(3-Fluorophenyl)-N-(1-quinoxalin-2-ylazetidin-3-yl)nicotinamide]
10.8 | O=C(NC1CN(c2nc3ccccc3o2)C1)c1ccc(-c2cccc(F)c2)nc1 [Example 606, N-[1-(1,3-Benzoxazol-2-yl)azetidin-3-yl]-6-(3-fluorophenyl)nicotinamide]
4.44 | Cc1ccc(C#N)c(N2CC(NC(=O)c3ccc(-c4cccc(F)c4)nc3)C2)n1 [Example 607, N-[1-(3-Cyano-6-methylpyridin-2-yl)azetidin-3-yl]-6-(3-fluorophenyl)nicotinamide]
3.66 | O=C(NC1CCN(CC(F)(F)F)CC1)c1cnc(-c2cccc(F)c2)c(Cl)c1 [Example 620, 5-Chloro-6-(3-fluorophenyl)-N-[1-(2,2,2-trifluoroethyl)piperidin-4-yl]nicotinamide]
1.59 | O=C(NC1CCN(c2cccnn2)CC1)c1cnc(-c2cccc(F)c2)c(Cl)c1 [Example 621, 5-Chloro-6-(3-fluorophenyl)-N-(1-pyridazin-3-ylpiperidin-4-yl)nicotinamide]
3.48 | CC(C)(C)C(=O)N1CCC(NC(=O)c2cnc(-c3cccc(F)c3)c(Cl)c2)CC1 [Example 622, 5-Chloro-6-(3-fluorophenyl)-N-(1-pivaloylpiperidin-4-yl)nicotinamide]
